Data published in US6458585B1, “Cytokine-free culture of dendritic cells” (Nexell Therapeutics Inc., priority 1996, dated 2002).

Assays:
Type in all cases: cell-based, human
[1] = test system: Bulk PBMNC; test: Flow cytometry phenotype of bulk PBMNC cultures with non-cytokine additives; settings: Day 7
Experimental: (§1) Culture of Bulk PBMNC: PBMNC cells were cultured in X-VIVO 15™ supplemented with 2 mM L- glutamine. Cultures were initiated at 5×^05 cells/ml in PL2417 gas-permeable containers (20 ml). GM-CSF and IL-4 were added to the cultures at final concentrations of 50 ng/ml and 1000 U/ml or non-cytokine additives such as Vitamin D3 at 2.5 uM, Vitamin E at 0.1%, Linoleic Acid at 5 ug/ml, or Ca++ Ionophore at 10 mM. Addition and subtraction of cells, media, and growth factors to and from PL2417 gas-permeable containers was accomplished by spiking a Sampling Site Coupler into the sample port of the container followed by use of syringes and needles. Cells were cultured in a 5% CO2, ambient O2, 37° C. humidified incubator for 7 days.
Cultured cells were phenotyped as described in Example 1 above for the following markers: […]

[2] = test system: T cells; test: Allogeneic MLR with bulk PBMNC cultures grown with non-cytokine additives
Experimental: MLR's were setup using T cells as responders and dendritic cell enriched cultures as antigen presenters. Sheep red blood cells were prepared and used to erythrocyte rosette T cells from a MNC preparation as described in “Current Protocols in Immunology”, John Wiley & Sons Inc, 1995. Vol. 2, 7.2.1-7.2.4. Erythrocyte+(E+ ) T cells were resuspended to 1×10^6 cells/ml in RPMI 1640/10% FCS. Dendritic cells were resuspended to 1×10^6 cells/ml in RPMI 1640/10% FCS and mitomycin C was added at 25 ug/ml to inhibit proliferation. The tubes were incubated at 37° C. for 30 min. then washed 3 times with PBS-CMF/1% HA. […] […] The appropriate control wells were also prepared. Plates were incubated for 4 or 5 days at 37° C.
Each well was pulsed with 1 uCi of ^3H-thymidine in RPMI 1640/10% FCS. Plates were incubated overnight at 37° C.
Plates were harvested onto glass fiber filter strips using a cell harvester. Discs were placed into scintillation vials containing scintillation cocktail and samples were counted using a beta radiation counter.
(§2) Cytospin slide preparation, Wright-Geimsa and immunohistochemical staining of the cultured cells were conducted as described in Example 1 and 2 above. Mixed lymphocyte reactions (MLR's) were setup using T cells (responders) and dendritic cell enriched cultures (stimulators) from bulk PBMNC cultures, as described above in Example 1.
The functional capacity of cultured cells to induce T cell proliferation was measured in an allogeneic MLR. […] At the greatest ratio of 1:100, the differences in capacity to induce T cell proliferation is marginal between the GM-CSF/IL-4 cultured cells and the non-cytofine additive cultured cells.

[3] = test system: Bulk PBMNC; test: Morphologically identified dendritic cells in bulk PBMNC cultures with non-cytokine additives; settings: for % DC: Day 7; for TOTAL # OF DC: Day 7, projected in culture
Experimental: (§3) Cytofunnels were attached to microscope slides. 50,000 to 100,000 cells were removed from each culture and resuspended in approximately 100 to 200 ul of PBS-CMF. Slides were placed in the Cytospin® centrifuge and spun at 100 rpm for 4 min. Cytofunnels were removed from the slides and the slides were air dried for 1 minute. Ten drops of Wright-Geimsa stain were placed onto each slide and allowed to fix for 1 to 2 minutes. Ten drops of water were added to each slide and allowed to sit for 2 to 4 minutes. The slides were rinsed and air dried.
(§4) Reading of Cytospin Slides: Slides were read under phase contrast microscopy, 40× and 60× oil magnification. One hundred cells were identified and characterized morphologically as either dendritic cells or non-dendritic cells (lymphocytes and monocyte, or CD34+-derived cells in those cases). Digital images were taken using a color monitor and color video printer.
as §1, §2

[4] = test system: adherent PBMNC; test: Cell counts and viability of plastic adherent cells cultured with non-cytokine additives in polystyrene plates; design: % VIABLE: concentration or dose not given beside the values; settings: for % VIABLE: propidium iodide
Experimental: Viability Determination: Prior to acquisition, 5 ul propidium iodide (PI) was added to each tube for use as a viability check. The cells were vortexed and acquired within 10 min of PI addition.
(§5) Enrichment and Culture of Adherent Cells Using Polystyrene Tissue Culture Plates: PBMNC were resuspended in culture media (X-VIVO 15™+10% autologous serum) at 2×10^6 cells/ml. Cells were placed into 48 well polystyrene tissue culture plates […] and incubated for 2 hours in a 5% CO2, ambient O2, 37° C. humidified incubator. Non-adherent cells were removed from the plates then wells were rinsed with X-VIVO 15™ containing no serum. Cells remaining in the wells were adherent cells. These cells were cultured by adding 2 ml of X-VIVO 15™ to each well plus GM-CSF and IL-4 at final concentrations of 50 ng/ml and 1000 U/ml or the following: cAMP at 0.5 mM, dibutyryl cAMP at 0.1 mM, NaF at 0.25 mM, theophylline at 0.5 mM, PGE at 0.1 mM, Vitamin D3 at 2.5 uM, Vitamin E at 0.1%, Retinoic Acid at 10^−6 M, PMA at 1 pM, Linoleic Acid at 5 ug/ml, or Ca^++ Ionophore at 10 mM. Furthermore, cells were also cultured with the above non-cytokine additives plus GM-CSF at 50 ng/ml. Cells were cultured in a 5% CO2, ambient O2, 37° C. humidified incubator for 7 days.
(§6) Results: In the set of experiments using plastic adherent cells grown in polystyrene tissue culture plates, a Day 0 analysis of the cells was not performed. However, these cultures were analyzed for the presence of DC on days 4 and 7. Analysis perfomed were cell counts, viability via propidium iodide, morphology under Wright-Geimsa staining, and immunohistochemical staining using an anti-S100 antibody.

[5] = test system: adherent PBMNC; test: DC morphology (Wright-Geimsa) of plastic adherent cells cultured with non-cytokine additives
Experimental: as §3, §4, §5, §2, §6

[6] = test system: Bulk PBMNC; test: Concentration, viability and total cells of bulk PBMNC cultured with non-cytokine additives in PL2417; settings: Day 7, PL2417 container, X-VIVO 15
Experimental: as §1
The next set of experiments evaluated only 4 of the non-cytokine additives. These 4 were determined to have the highest ability to induce DC generation from PBMNC. The 4 non-cytokine additives examined were Vitamin D3, Vitamin E, Ca^++ Ionophore, and Linoleic Acid. These additives were compared to GM-CSF/IL-4. Bulk PBMNC were initiated at 5×10^5 cells/ml in X-VIVO 15™ using PL2417 gas-permeable containers (20 ml per container).

[7] = test system: Bulk PBMNC; test: S100+ cells in bulk PBMNC cultures with non-cytokine additives; settings: for % S100+: Day 7; for TOTAL # OF S100+: Day 7, projected in culture
Experimental: (§7) Immunocytochemical staining: PBS (phosphate buffered saline) was made by dissolving 5 PBS tablets into 1000 ml millipore water. Cytospin slides were soaked in PBS. Endogenous peroxidase activity was blocked by treating slides with hydrogen peroxide/PBS (2 ml 30% H2O2+30 ml PBS) for 10 min. Slides were rinsed with PBS one time. Non-specific binding sites were blocked by incubating with normal serum matching source of secondary antibody (i.e. if secondary antibody is biotinylated goat-anti-mouse, used normal goat serum) at room temp. for 15 min. in a humidified environment. Excess serum was shaken from slides and placed 100 ul of primary antibody on slide, making sure cells are covered with liquid and incubated in humidified environment, room temp, for one hour. Negative control slides were incubated with normal serum for this hour. Slides were rinsed 3 times with PBS. Slides were incubated with biotinylated antibody reactive against the primary antibody (i.e. if primary antibody is mouse-anti-human, use a biotinylated goat-anti-mouse antibody) for 1 hour in humidity. Slides were rinsed 3 times with PBS. Slides were incubated with streptavidin-peroxidase, 2 drops/slide, for 30 min. in humidity. Slides were rinsed 3 times with PBS.
(§8) Chromagen solution was made with 5 ml millipore water+2 drops of chromagen buffer+1 drop of concentrated chromagen+1 drop of substrate, and 4-5 drops were added to each slide. […] Slides were counterstained with hematoxylin for about 5 min, or until cell nuclei were stained purple. Cells were rinsed with tap water and allowed to air dry. Slides were covered with crystal mount and oven dried at 80 degrees for 15 min. Slides were allowed to cool, then coversliped with mounting medium.
as §1, §2
The S100 protein is a nerve cell protein that has been associated with dendritic cells. In Table 47, at day 7 of culture, the highest percent of S100+ cells was present in the GM-CSF/IL-4 culture (13%).

[8] = test system: adherent PBMNC; test: S100 immunohistochemistry of plastic adherent cells cultured with non-cytokine additives
Experimental: as §7, with “Endogenous peroxidase activity was blocked by treating slides with hydrogen peroxide/PBS (2 ml 30% H2O2+30 ml PBS) for 10 min.” left out
as §8, §5, §2, §6

[9] = Day 7, Cell Culture:T cell Ratio 1:1
[10] = Day 7, Cell Culture:T cell Ratio 1:10
[11] = Day 7, Cell Culture:T cell Ratio 1:100

For CCCCC/C=C\C/C=C\CCCCCCCC(=O)O [Linoleic Add], the “Percent of Phenotype in Culture: CD1a-PE” value [1] was 0.08%, the “Percent of Phenotype in Culture: CD14-PE” value [1] was 0.46% and the “Percent of Phenotype in Culture: CD80-PE” value [1] was 2.61%. For the same compound, the “Percent of Phenotype in Culture: CD86-PE” value [1] was 2.72%.
With CNc1ccc2oc(CC3OC4(CCC3C)OC(C(C)C(=O)c3ccc[nH]3)C(C)CC4C)nc2c1C(=O)O (stereo not shown) [Ca++ Iono] the “Allogeneic MLR. Increase Over Background Proliferation” value [2, 9] was 4.8, the “Allogeneic MLR. Increase Over Background Proliferation” value [2, 10] was 1.8 and the “Allogeneic MLR. Increase Over Background Proliferation” value [2, 11] was 0.9. For the same compound, the “% DC” value [3] was 7.00% and the “TOTAL # OF DC” value [3] was 5.74E+05.
In the case of CNc1ccc2oc(CC3OC4(CCC3C)OC(C(C)C(=O)c3ccc[nH]3)C(C)CC4C)nc2c1C(=O)O (stereo not shown) [Ca ++ Iono], the “TOTAL CELLS” value ([4]; Day 4, without GM-CSF) is reported as 1.69E + 05, the “% VIABLE” value ([4]; Day 4, without GM-CSF) is reported as 74.04% and the “TOTAL CELLS” value ([4]; Day 7, with GM-CSF present) is reported as 1.05E + 05. The “% VIABLE” value ([4]; Day 7, with GM-CSF present) was 82.69%, the “% DC” value ([5]; Day 4, without GM-CSF) was 2.50% and the “% DC” value ([5]; Day 7, with GM-CSF present) was 4.50%. The CELLS/ML [6] was 2.22E + 06 cells/ml, the “TOTAL CELLS” value [6] was 8.29E + 06 and the VIABILITY [6] was 83.72%. The “% S100+” value [7] was 7.50%, the “TOTAL # OF S100+” value [7] was 6.17E + 05 and the “% S100+” value ([8]; Day 4, without GM-CSF) was 17.00%. For the same compound, the “% S100+” value ([8]; Day 7, with GM-CSF present) was 26.50%.
CNc1ccc2oc(CC3OC4(CCC3C)OC(C(C)C(=O)c3ccc[nH]3)C(C)CC4C)nc2c1C(=O)O (stereo not shown) [Ca ++ lono] was tested, and the “Percent of Phenotype in Culture: CD1a-PE” value [1] was 0.04%, the “Percent of Phenotype in Culture: CD14-PE” value [1] was 0.26% and the “Percent of Phenotype in Culture: CD80-PE” value [1] was 2.21%. For the same compound, the “Percent of Phenotype in Culture: CD86-PE” value [1] was 2.32%.
C=C1CCC(O)CC1=CC=C1CCCC2(C)C1CCC2C(C)CCCC(C)C (stereo not shown) [VIT D3] was tested, and the “Percent of Phenotype in Culture: CD1a-PE” value [1] was 0.10%, the “Percent of Phenotype in Culture: CD14-PE” value [1] was 0.53% and the “Percent of Phenotype in Culture: CD80-PE” value [1] was 2.65%. The “Percent of Phenotype in Culture: CD86-PE” value [1] was 2.62%, the CELLS/ML [6] was 2.11E + 06 cells/ml and the “TOTAL CELLS” value [6] was 8.04E + 06. For the same compound, the VIABILITY [6] was 84.51%, the “Allogeneic MLR. Increase Over Background Proliferation” value [2, 9] was 6.9 and the “Allogeneic MLR. Increase Over Background Proliferation” value [2, 10] was 2.7. For the same compound, the “Allogeneic MLR. Increase Over Background Proliferation” value [2, 11] was 1.4, the “% DC” value [3] was 6.50% and the “TOTAL # OF DC” value [3] was 5.12E+05. The “% S100+” value [7] was 5.00% and the “TOTAL # OF S100+” value [7] was 4.16E + 05.
